Source: patent publication EP0672658B1, “Antithrombotic agents” (priority 1994, dated 1995)
Counter-ions that a name gives are not always drawn.

Experiments:
human or animal plasma [1] = experiment: Anticoagulation determination in plasma: thrombin time (TT); format: biochemical; details: concentration doubling thrombin time
Outline: (§1)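 Compounds spiked over a concentration range into citrated human, dog or rat plasma. PT used Thromboplastin-C; APTT used Actin reagent 120 s then 0.02 M CaCl2; TT used bovine thrombin 10 NIH units/mL. Concentration doubling clotting time estimated by linear extrapolation.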

factor Xa = factor Xa (Homo sapiens, UniProt P00742); experiment: biochemical; details: read-out: Kass Xa (converted)
Chain of factor Xa (P00742 235-488 limits assumed): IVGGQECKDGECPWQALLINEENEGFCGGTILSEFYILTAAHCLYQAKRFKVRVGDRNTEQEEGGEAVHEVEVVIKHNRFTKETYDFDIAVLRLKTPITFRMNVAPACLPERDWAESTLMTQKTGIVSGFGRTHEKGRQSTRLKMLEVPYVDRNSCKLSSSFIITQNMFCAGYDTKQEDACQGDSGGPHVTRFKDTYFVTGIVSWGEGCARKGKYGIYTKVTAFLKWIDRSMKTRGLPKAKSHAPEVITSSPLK
Chain of factor Xa (P00742 41-179 partner limits assumed): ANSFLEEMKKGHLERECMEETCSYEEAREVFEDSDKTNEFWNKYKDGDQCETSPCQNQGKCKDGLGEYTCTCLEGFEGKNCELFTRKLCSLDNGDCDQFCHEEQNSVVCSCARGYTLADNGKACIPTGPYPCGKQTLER
Outline: (§2)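 Bovine trypsin and human factor Xa amidase activity measured chromogenically, following the human thrombin procedure. Substrates: N-Benzoyl-Ile-Glu-Gly-Arg-p-nitroanilide for factor Xa and N-Benzoyl-Phe-Val-Arg-p-nitroanilide for trypsin. Used for selectivity profiling.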

human or animal plasma [2] = experiment: Anticoagulation determination in plasma: prothrombin time (PT); format: biochemical; details: concentration doubling prothrombin time
Outline: as §1

t-PA = t-PA (Homo sapiens, UniProt P00750); experiment: biochemical; details: read-out: Kass t-PA (converted)
Chain of t-PA (P00750 36-562): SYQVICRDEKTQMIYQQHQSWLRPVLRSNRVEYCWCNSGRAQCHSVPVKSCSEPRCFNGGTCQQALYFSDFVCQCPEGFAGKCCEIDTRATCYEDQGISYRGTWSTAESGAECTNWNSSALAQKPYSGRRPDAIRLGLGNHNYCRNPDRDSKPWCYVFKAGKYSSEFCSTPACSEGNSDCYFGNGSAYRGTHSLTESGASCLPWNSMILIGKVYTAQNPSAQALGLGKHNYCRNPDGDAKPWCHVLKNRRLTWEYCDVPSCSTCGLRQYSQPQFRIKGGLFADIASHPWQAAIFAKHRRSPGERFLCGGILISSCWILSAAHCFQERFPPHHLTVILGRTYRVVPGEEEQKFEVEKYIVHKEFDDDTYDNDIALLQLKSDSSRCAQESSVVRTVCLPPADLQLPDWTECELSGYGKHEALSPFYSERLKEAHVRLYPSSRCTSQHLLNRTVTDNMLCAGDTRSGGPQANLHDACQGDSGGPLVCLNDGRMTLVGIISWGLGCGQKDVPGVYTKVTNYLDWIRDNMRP
Outline: (§3)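 Amidase activity of human plasmin and t-PA (nt-PA single-chain; mt-PA6) was measured by a chromogenic method adapted from a thrombin assay. Substrates were H-D-Val-Leu-Lys-p-nitroanilide for plasmin and H-D-Ile-Pro-Arg-p-nitroanilide for t-PA.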

Plasmin = target: T1, Plasmin (Homo sapiens, UniProt P00747); experiment: biochemical; details: read-out: Kass Plasmin (converted)
T1 construct: Human plasmin is purchased; purchased Boehringer Mannheim, Indianapolis, Indiana
T1 sequence (P00747 581-810 limits assumed): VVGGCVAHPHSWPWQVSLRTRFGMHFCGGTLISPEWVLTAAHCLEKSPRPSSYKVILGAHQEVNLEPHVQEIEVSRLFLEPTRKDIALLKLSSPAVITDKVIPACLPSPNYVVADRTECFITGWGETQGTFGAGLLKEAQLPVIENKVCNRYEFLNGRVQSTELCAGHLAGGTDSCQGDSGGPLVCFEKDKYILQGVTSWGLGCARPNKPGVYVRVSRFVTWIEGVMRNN
T1 sequence (P00747 97-580 partner limits assumed): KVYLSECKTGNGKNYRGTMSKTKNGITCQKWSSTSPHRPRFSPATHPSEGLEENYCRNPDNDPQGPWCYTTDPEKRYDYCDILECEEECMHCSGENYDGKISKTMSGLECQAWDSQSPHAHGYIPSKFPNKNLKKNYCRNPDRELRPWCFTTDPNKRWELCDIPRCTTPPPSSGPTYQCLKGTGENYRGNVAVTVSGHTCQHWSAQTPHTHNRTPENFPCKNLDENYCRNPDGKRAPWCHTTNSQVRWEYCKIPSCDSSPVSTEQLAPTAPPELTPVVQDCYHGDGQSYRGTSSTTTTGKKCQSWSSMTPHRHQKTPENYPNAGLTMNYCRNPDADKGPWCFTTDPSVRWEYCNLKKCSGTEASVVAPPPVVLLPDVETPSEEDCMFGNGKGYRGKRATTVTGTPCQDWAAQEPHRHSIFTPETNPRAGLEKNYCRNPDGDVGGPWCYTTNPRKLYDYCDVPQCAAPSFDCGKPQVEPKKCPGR
Outline: as §3

Human Thrombin = Human Thrombin (Homo sapiens, UniProt P00734); experiment: biochemical; details: read-out: Kass Human Thrombin (converted)
Trypsin = target: T2, Trypsin (Bos taurus, UniProt P00760); experiment: biochemical; design: species or system Bovine; details: read-out: Kass Trypsin (converted)
T2 sequence (P00760 24-246): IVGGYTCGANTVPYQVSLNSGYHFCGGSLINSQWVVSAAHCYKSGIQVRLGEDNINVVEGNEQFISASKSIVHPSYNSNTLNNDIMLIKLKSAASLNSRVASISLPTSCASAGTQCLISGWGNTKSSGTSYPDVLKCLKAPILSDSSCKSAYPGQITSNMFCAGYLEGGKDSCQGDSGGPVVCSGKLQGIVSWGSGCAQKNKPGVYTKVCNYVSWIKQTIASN
Outline: as §2

human or animal plasma [3] = experiment: Anticoagulation determination in plasma: activated partial thromboplastin time (APTT); format: biochemical; details: concentration doubling activated partial thromboplastin time
Outline: as §1

SMILES | Human Plasma Anticoagulation 2x Clotting time (ng/mL) TT (human or animal plasma [1]) | Kd (factor Xa) | Human Plasma Anticoagulation 2x Clotting time (ng/mL) PT (human or animal plasma [2]) | Kd (t-PA) | Kd (Plasmin) | Kd (Human Thrombin) | Kd (Trypsin) | Human Plasma Anticoagulation 2x Clotting time (ng/mL) APTT (human or animal plasma [3])
O=C(O)CN[C@H](CC1CCCCC1)C(=O)N1CCC[C@H]1C(=O)NCCCC1=CCNCC1 [Example 60, HO2CCH2-D-Cha-Pro-4-NHCH2CH2CH2-3,4-dehydro-piperidine·HCl] | 3,200 ng/mL | > 1000 µM | 77,700 ng/mL | > 1000 µM | > 1000 µM | 4.17 µM | 33.3 µM | 22,200 ng/mL
O=C(O)CN[C@H](CC1CCCCC1)C(=O)N1CCC[C@H]1C(=O)NCC1CCNCC1 [Example 53, HO2CCH2-D-Cha-Pro-4-NHCH2-piperidine·HCl] | 1,400 ng/mL | > 1000 µM | 34,500 ng/mL | > 1000 µM | > 1000 µM | 2.78 µM | 10 µM | 33,800 ng/mL
CCS(=O)(=O)N[C@H](Cc1ccccc1)C(=O)N1CCC[C@H]1C(=O)NCc1cccc(C(=N)N)c1 [Example 24, EtSO2-D-Phe-Pro-m-NHCH2-C6H4C(=NH)NH2·HCl] | 1,000 ng/mL | > 1000 µM | 25,000 ng/mL | > 1000 µM | > 1000 µM | 1.28 µM | 33.3 µM | 25,900 ng/mL
O=C(O)CN[C@H](CC1CCCCC1)C(=O)N1CCC[C@H]1C(=O)NCC1=CCNCC1 [Example 58, HO2CCH2-D-Cha-Pro-4-NHCH2-3,4-dehydro-piperidine·HCl] | 710 ng/mL | > 1000 µM | 11,400 ng/mL | > 1000 µM | > 1000 µM | 1.67 µM | 2.5 µM | 14,300 ng/mL
N=C(N)c1ccc(CNC(=O)[C@@H]2C[C@H](Oc3ccccc3)CN2C(=O)[C@H]2CCCCN2)cc1 [Example 22, D-hPro-Pro(4-cis-PhO)-p-NHCH2-C6H4C(NH)NH2·2HCl] | 170 ng/mL | 23.3 µM | 1,000 ng/mL | 250 µM | 23.8 µM | 0.333 µM | 0.118 µM | 2,300 ng/mL
CCS(=O)(=O)N[C@H](Cc1ccccc1)C(=O)N1CCC[C@H]1C(=O)NCCCc1cccc(C(=N)N)c1 [Example 31, EtSO2-D-Phe-Pro-m-NHCH2CH2CH2-C6H4C(=NH)NH2·HCl] | 10,800 ng/mL | 7.14 µM | 30,000 ng/mL | > 1000 µM | > 1000 µM | 14.3 µM | 20 µM | 34,500 ng/mL
N=C(N)c1ccc(CCCNC(=O)[C@@H]2CCCN2C(=O)[C@@H]2NCC[C@@H]3CCCC[C@@H]32)cc1 [Example 32, 1-Piq-Pro-p-NHCH2CH2CH2-C6H4C(=NH)NH2·HCl] | 3,100 ng/mL | 33.3 µM | 47,800 ng/mL | 100 µM | > 1000 µM | 7.69 µM | 25 µM | 28,500 ng/mL
O=C(O)CN[C@H](CC1CCCCC1)C(=O)N1CCC[C@H]1C(=O)NCCC1CCNCC1 [Example 54, HO2CCH2-D-Cha-Pro-4-NHCH2CH2-piperidine·HCl] | 140 ng/mL | > 1000 µM | 2,200 ng/mL | > 1000 µM | 100 µM | 0.357 µM | 1.92 µM | 3,300 ng/mL
CCS(=O)(=O)N[C@H](Cc1ccccc1)C(=O)N1CCC[C@H]1C(=O)NCc1ccc(NC(=N)N)cc1 [Example 34, EtSO2-D-Phe-Pro-p-NHCH2C6H4NHC(NH)NH2·HCl] | 530 ng/mL | > 1000 µM | 5,500 ng/mL | 100 µM | 100 µM | 1.54 µM | 2.04 µM | 4,900 ng/mL
O=C(O)CN[C@H](CC1CCCCC1)C(=O)N1CCC[C@H]1C(=O)NCCCC1CCNCC1 [Example 55, HO2CCH2-D-Cha-Pro-4-NHCH2CH2CH2-piperidine·HCl] | 55,800 ng/mL | > 1000 µM | >91,000 ng/mL | > 1000 µM | > 1000 µM | 100 µM | 100 µM | >91,000 ng/mL
CCS(=O)(=O)N[C@H](Cc1ccccc1)C(=O)N1CCC[C@H]1C(=O)NCCc1ccc(NC(=N)N)cc1 [Example 35, EtSO2-D-Phe-Pro-p-NHCH2CH2C6H4CNH(NH)NH2·HCl] | 4,500 ng/mL | > 1000 µM | 78,400 ng/mL | > 1000 µM | > 1000 µM | 11.1 µM | 25 µM | 50,400 ng/mL
N=C(N)NCCCCNC(=O)[C@@H]1CCCN1C(=O)[C@@H]1NCC[C@H]2CCCC[C@H]21 [Example 61, N-[4-[(aminoiminomethyl)amino]butyl]-1-[[(4aR,8aR)-decahydro-1(R)-isoquinolinyl]carbonyl]-1-prolinamide trihydrochloride] | 45 ng/mL | 33.3 µM | 756 ng/mL | 125 µM | 250 µM | 0.0159 µM | 1 µM | 679 ng/mL
CCS(=O)(=O)N[C@H](Cc1ccccc1)C(=O)N1CCC[C@H]1C(=O)NCCc1cccc(C(=N)N)c1 [Example 27, EtSO2-D-Phe-Pro-m-NHCH2CH2-C6H4C(=NH)NH2·HCl] | 1,940 ng/mL | 50 µM | 27,000 ng/mL | 50 µM | > 1000 µM | 3.45 µM | 50 µM | 27,800 ng/mL
CCS(=O)(=O)N[C@H](Cc1ccccc1)C(=O)N1CCC[C@H]1C(=O)NCc1ccc(C(=N)N)cc1 [Example 23, EtSO2-D-Phe-Pro-p-NHCH2-C6H4C(=NH)NH2·HCl] | 7 ng/mL | 7.14 µM | 120 ng/mL | 3.23 µM | 2.27 µM | 0.0013 µM | 0.0476 µM | 86 ng/mL
